Measurements: patent US20220306623A1, “PYRIDYL OR PYRIMIDYL MTOR KINASE INHIBITORS” (GLAXOSMITHKLINE INTELLECTUAL PROPERTY DEVELOPMENT LIMITED, priority 2019, published 2022)

Key:
[1] = system: phosphorylated Akt at serine 473 (pAKTs473) in primary lung fibroblasts derived from explanted tissue; assay: Phosphorylated Akt (Ser473) in vitro immunoassay (MSD), fibroblasts from explanted tissue; format: cell-based; settings: Homo sapiens, Primary lung fibroblast, 96-well, compound 2 h, PDGF-BB 10 ng/ml 15 min, read-out: mean pIC50, pAKTs473 immunoassay (converted)
Excerpt: Immunoassay using the Meso Scale Discovery (MSD) platform to measure the effect of test compounds on phosphorylated Akt at serine 473 (pAKTs473) in primary lung fibroblasts derived from explanted tissue. The human biological samples were sourced ethically and their research use was in accord with the terms of the informed consents under an IRB/EC approved protocol.
Human lung fibroblasts were routinely maintained in Dulbecco's Modified Eagle Medium (DMEM; Gibco, catalogue no. 21969-035) supplemented with 10% foetal bovine serum (FBS (heat-inactivated); Gibco, catalogue no. 10270-106) and 4 mM L-glutamine (Gibco, catalogue no. 25030024) at 37° C. in 10% CO2.
For the assay, cells were harvested using Trypsin/EDTA (Gibco, catalogue no. 25300-062), resuspended to give 1.2×10^5 cells/ml and 100 ul/well seeded into 96-well plates (Corning, Catalogue No. 3596) in DMEM supplemented with 0.4% FCS and 4 mM L-glutamine and incubated overnight at 37° C. in 10% CO2.
Test compounds were dissolved in 100% DMSO to give 10 mM stock solutions and serially diluted to generate a 10-point concentration response curve. Compounds were further diluted 100-fold into 96-well V-bottom polypropylene plates (Greiner, Catalogue no. 651201) with DMEM supplemented with 0.4% FCS and 4 mM L-glutamine to give 100 µM top compound concentration in 1% DMSO.
Compounds were further diluted 10-fold by transfer to 96-well plates containing cells ([…] top concentration, 0.1% DMSO final) and incubated for 2 h at 37° C. in 10% CO2, prior to stimulation with platelet-derived growth factor (PDGF)-BB (Gibco, Catalogue no. PHG0041) at 10 ng/ml (final) for 15 min at 37° C. in 10% CO2. Cell assay plates were then incubated on ice and treated with lysis buffer (Cell Signalling Technology, Catalogue No. 9803) containing protease and phosphatase inhibitors (Halt, Thermo Scientific, Catalogue No. 78444) for 30 min.
MSD plates (MSD, Phospho(Ser473)/Total Akt Whole Cell Lysate Kit, Catalogue No. K15100D-3) were blocked with 1×blocking buffer as per the manufacturer's instructions at RT with shaking, followed by washing (×3) with Tris-buffered saline containing 0.05% Tween-20 (TBST). Cell lysates (30 ul) were added and MSD plates incubated for 1 h at RT with shaking.
Plates were washed with TBST (×3), prior to addition of SULFO-TAG Anti-Total Akt Antibody as per the manufacturer's instructions and shaken at RT for 1 h. After washing with 1×TBST (×3), read buffer (1×) (MSD, Catalogue No. R92TC-1) was added as per the manufacturer's instructions before detecting electrochemiluminescence (MSD Sector Imager 600).
Data analysis was performed using non-linear regression analysis to determine IC50 values for test compounds. Minimum (no PDGF-BB stimulation) and maximum responses (+PDGF-BB stimulation) were monitored for assay quality control.

[2] = system: type I collagen deposition in primary lung fibroblasts derived from human tissue; assay: Type I collagen deposition (scar-in-a-jar) high content screening assay; format: cell-based; settings: Primary lung fibroblast, 72 h, human pulmonary fibroblasts, 96-well, TGFβ-1 1 ng/ml 72 h, collagen intensity, read-out: mean pIC50, type I collagen deposition (scar-in-a-jar) (converted)
Method: Cellular type I collagen deposition was measured by adapting a published method; scar-in-a-jar (Chen et al., 2009) to primary lung fibroblasts derived from human tissue and combining with high content analysis to permit fluorescent quantification of collagen deposited in the extracellular matrix (ECM). The human biological samples were sourced ethically and their research use was in accord with the terms of the informed consents under an IRB/EC approved protocol. Human pulmonary fibroblasts were maintained in DMEM media (Gibco, Catalogue No 21969) supplemented with 4 mM L-glutamine (Gibco Catalogue No 25030-024) and 100/heat inactivated FBS (Gibco #10270-106, Lot #42F6663K) at 37° C. in 10%/CO2. Cells were harvested and seeded at 10,000 cells per well (85 μL/well) into black walled 96 well imaging plates (BD Falcon, 353219) in assay media (0.4%/heat inactivated FBS, 4 mM L-glutamine) and incubated overnight at 37° C., 10%/CO2.
Test compounds were dissolved in 1000/DMSO to give 10 mM stocks which were further diluted (serial 1:3) to generate 10 point concentration response curves. Assay media was supplemented with 112.5 mg/ml Ficoll 70 (Sigma, Catalogue No F2878), 75 mg/ml Ficoll 400 (Sigma, Catalogue No F4375) and 50 µg/ml ascorbic acid (Sigma, Catalogue No A8960). 3 μL compound were added to 297 μL assay media (10× compound final concentration in 1% DMSO).
Diluted compounds (15 μL) were transferred to plates containing cells and incubated for 3 h at 37° C. in 10% CO2. Transforming growth factor (TGF)β-1 (R&D Systems, Catalogue No 100-B/CF) was reconstituted according to manufacturer's instructions to give 10 µg/mL (stock) and further diluted (1 in 3333) in assay media containing Ficoll and ascorbic acid. 50 μL TGFβ-1 was added to cell plates (1 ng/ml final) and cells incubated for 72 h at 37° C. in 10% CO2.
Media was removed and cells were fixed with 50 µL/well 100% ice-cold methanol (2 min). Methanol was decanted and cells washed with PBS (3×). To permeabilise, cells were incubated with PBS containing 0.1% Triton X 100 for 90 sec, followed by PBS wash (3×). Cells were incubated with mouse anti human type I collagen monoclonal antibody (Sigma, Catalogue No C2456) diluted 1:1000 in PBS overnight at 4° C. Cells were washed with PBS containing 0.05% Tween-20 (3×) and incubated with secondary alexa fluor 488 goat-anti-mouse antibody (Invitrogen, Catalogue No A11001, 1 in 500 in PBS) and Hoechst 33342 (Sigma, Catalogue No H21492), 1 in 10000 in PBS) for 1 h at RT, prior to washing with PBS containing 0.05% Tween (×3) before finally adding 200 µL/well PBS.
Type I collagen immunoreactivity was detected using the Thermofisher CellInsight NXT set to excitation and emission wavelengths for DAPI and FITC with exposure adjusted to appropriate levels. Images were analysed using Cellomics Studio software (Version 6.6.0, build 8153) and computational algorithms to quantify “collagen intensity” and “cell count”.
Data analysis was performed by determining % response values for test compounds relative to the maximum (TGFβ-1 stimulation) fitting a ‘log(inhibitor) vs. response-Variable slope (four parameters)’ curve and recording pIC50 (inverse of Log IC50) values for test compounds.

Q: For `CC[C@H]1COCCN1c1cc(CS(C)(=O)=O)nc(-c2ccc3[nH]c(CNC)cc3n2)n1` [Example 1, [(5-{4-[(3S)-3-ethylmorpholin-4-yl]-6-(methanesulfonylmethyl)pyrimidin-2-yl}-1H-pyrrolo[3,2-b]pyridin-2-yl)methyl](methyl)amine], which IC50 [1] is on record?
A: < 0.1 µM

Q: With `CC[C@H]1COCC(=O)N1c1cc(CS(C)(=O)=O)cc(-c2ccc3[nH]c(CO)cc3n2)n1` [Example 27] as the compound, how does the IC50 [2] read?
A: < 3.98 µM

Q: Which IC50 [2] does the source give for `CC[C@H]1COCCN1c1cc(CS(C)(=O)=O)nc(-c2ccc3[nH]c(CO)cc3n2)n1` [Example 2, (S)-(5-(4-(3-ethylmorpholino)-6-((methylsulfonyl)methyl)pyrimidin-2-yl)-1H-pyrrolo[3,2-b]pyridin-2-yl)methanol] here?
A: < 3.98 µM

Q: `CC[C@H]1COCC(=O)N1c1cc(CS(C)(=O)=O)cc(-c2ccc3[nH]c(C)cc3n2)n1` [Example 24, (S)-5-ethyl-4-(6-(2-methyl-1H-pyrrolo[3,2-b]pyridin-5-yl)-4-((methylsulfonyl)methyl)pyridin-2-yl)morpholin-3-one] was tested. Which IC50 [1] did it give?
A: < 0.1 µM

Q: With `CC[C@H]1COCCN1c1cc(C2(S(C)(=O)=O)CCOCC2)nc(-c2ccc3[nH]c(CO)cc3n2)n1` [Example 4, (5-{4-[(3S)-3-ethylmorpholin-4-yl]-6-(4-methanesulfonyloxan-4-yl)pyrimidin-2-yl}-1H-pyrrolo[3,2-b]pyridin-2-yl)methanol] as the compound, how does the IC50 [2] read?
A: > 3.98 µM

Q: With `CNCc1cc2nc(-c3cc(CS(C)(=O)=O)cc(N4CCO[C@H](C)[C@H]4C)n3)ccc2[nH]1` [Example 8, 1-(5-(6-((2R,3R)-2,3-dimethylmorpholino)-4-((methylsulfonyl)methyl)pyridin-2-yl)-1Hpyrrolo[3,2-b]pyridin-2-yl)-Nmethylmethanamine] as the compound, how does the IC50 [2] read?
A: < 3.98 µM

Q: `CC[C@H]1COCCN1c1cc(CS(N)(=O)=O)nc(-c2ccc3[nH]c(CNC)cc3n2)n1` [Example 6, {6-[(3S)-3-ethylmorpholin-4-yl]-2-{2-[(methylamino)methyl]-1H-pyrrolo[3,2-b]pyridin-5-yl}pyrimidin-4-yl}methanesulfonamide] was tested. Which IC50 [2] did it give?
A: > 3.98 µM

Q: What about the IC50 [1] of the same compound?
A: < 0.1 µM

Q: For `CCc1cc2nc(-c3nc(CS(C)(=O)=O)cc(N4C(=O)COC[C@@H]4CC)n3)ccc2[nH]1` [Example 15, (5S)-5-ethyl-4-(2-{2-ethyl-1H-pyrrolo[3,2-b]pyridin-5-yl}-6-(methanesulfonylmethyl)pyrimidin-4-yl)morpholin-3-one], which IC50 [1] is on record?
A: < 0.1 µM

Q: For `CC[C@H]1COCCN1c1cc(C2(S(C)(=O)=O)CCNCC2)cc(-c2ccc3[nH]c(C)cc3n2)n1` [Example 18, (S)-3-ethyl-4-(6-(2-methyl-1H-pyrrolo[3,2-b]pyridin-5-yl)-4-(4-(methylsulfonyl)piperidin-4-yl)pyridin-2-yl)morpholine], which IC50 [2] is on record?
A: < 3.98 µM
